Reference: ChEMBL document CHEMBL3885861, “Open TG-GATES”

Species on record: Rattus norvegicus
Experiment: Open TG-GATES - Regimen: Single
Assay type: toxicity, organism-based, Sprague-Dawley
Design: regimen Single, gender Male, age 6 weeks
Settings: in vivo, po, 300 mg/kg, route gavage, dose level High; for APTT / Bas / Eos / Fbg / Hb / Ht / Lym / MCHC / MCV / Mono / Neu / PT / Plat / RBC / Ret / WBC: tissue Blood; for KIDNEY_L / KIDNEY_R / KIDNEY_TOTAL: tissue Kidney; for LIVER: tissue Liver; for ALP / ALT / AST / BUN / CRE / Ca / Cl / DBIL / GLC / IP / K / LDH / Na / PL / RALB / TBIL / TC / TG / TP / gamma-GTP: tissue Plasma

CS(=O)(=O)Nc1ccc([N+](=O)[O-])cc1Oc1ccccc1 [NIMESULIDE]
TERMINAL_BW (3 h): 200.7 g | APTT (3 h): 21.2 s | Bas (3 h): 0% | Eos (3 h): 1.4% | Fbg (3 h): 206.8 mg/dL | Hb (3 h): 13 g/dL | Ht (3 h): 38.1% | Lym (3 h): 69.4% | MCHC (3 h): 34.1% | MCV (3 h): 65.4 fL | Mono (3 h): 6% | Neu (3 h): 23.6% | PT (3 h): 12.4 s | Plat (3 h): 109.9 x10_4/uL | RBC (3 h): 582.6 x10_4/ul | Ret (3 h): 11.4% | WBC (3 h): 70.5 x10_2/uL | KIDNEY_L (3 h): 0.9 g | KIDNEY_R (3 h): 0.9 g | KIDNEY_TOTAL (3 h): 1.8 g | LIVER (3 h): 8.9 g | ALP (3 h): 841.8 IU/L | ALT (3 h): 35.8 IU/L | AST (3 h): 62.8 IU/L | BUN (3 h): 21.4 mg/dL | CRE (3 h): 0.6 mg/dL | Ca (3 h): 10.7 mg/dL | Cl (3 h): 102.8 meq/L | DBIL (3 h): 0.046 mg/dL | GLC (3 h): 313.4 mg/dL | IP (3 h): 9.9 mg/dL | K (3 h): 4.9 meq/L | LDH (3 h): 88.4 IU/L | Na (3 h): 138 meq/L | PL (3 h): 137.4 mg/dL | RALB (3 h): 3.8 g/dL | TBIL (3 h): 0.4 mg/dL | TC (3 h): 81.2 mg/dL | TG (3 h): 49.6 mg/dL | TP (3 h): 5.1 g/dL | gamma-GTP (3 h): 1 IU/L | TERMINAL_BW (6 h): 196.2 g | APTT (6 h): 19.9 s | Bas (6 h): 0% | Eos (6 h): 0.8% | Fbg (6 h): 207.8 mg/dL | Hb (6 h): 13 g/dL | Ht (6 h): 39% | Lym (6 h): 68.4% | MCHC (6 h): 33.2% | MCV (6 h): 64.4 fL | Mono (6 h): 2.6% | Neu (6 h): 28.6% | PT (6 h): 12.5 s | Plat (6 h): 110.2 x10_4/uL | RBC (6 h): 605.8 x10_4/ul | Ret (6 h): 9.2% | WBC (6 h): 44 x10_2/uL | KIDNEY_L (6 h): 0.8 g | KIDNEY_R (6 h): 0.9 g | KIDNEY_TOTAL (6 h): 1.7 g | LIVER (6 h): 8.1 g | ALP (6 h): 978 IU/L | ALT (6 h): 30.6 IU/L | AST (6 h): 61.6 IU/L | BUN (6 h): 19.4 mg/dL | CRE (6 h): 0.7 mg/dL | Ca (6 h): 10.4 mg/dL | Cl (6 h): 101.6 meq/L | DBIL (6 h): 0.028 mg/dL | GLC (6 h): 360 mg/dL | IP (6 h): 10.7 mg/dL | K (6 h): 4.5 meq/L | LDH (6 h): 83.4 IU/L | Na (6 h): 135.4 meq/L | PL (6 h): 135 mg/dL | RALB (6 h): 3.8 g/dL | TBIL (6 h): 0.4 mg/dL | TC (6 h): 80.4 mg/dL | TG (6 h): 27 mg/dL | TP (6 h): 5.3 g/dL | gamma-GTP (6 h): 1 IU/L | TERMINAL_BW (9 h): 192.8 g | APTT (9 h): 19 s | Bas (9 h): 0% | Eos (9 h): 0% | Fbg (9 h): 208.8 mg/dL | Hb (9 h): 13.2 g/dL | Ht (9 h): 39.2% | Lym (9 h): 74.5% | MCHC (9 h): 33.8% | MCV (9 h): 65 fL | Mono (9 h): 4.5% | Neu (9 h): 20.8% | PT (9 h): 12.8 s | Plat (9 h): 108.6 x10_4/uL | RBC (9 h): 603.2 x10_4/ul | Ret (9 h): 10.1% | WBC (9 h): 54.5 x10_2/uL | KIDNEY_L (9 h): 0.8 g | KIDNEY_R (9 h): 0.9 g | KIDNEY_TOTAL (9 h): 1.7 g | LIVER (9 h): 7.3 g | ALP (9 h): 850.5 IU/L | ALT (9 h): 26.8 IU/L | AST (9 h): 59.8 IU/L | BUN (9 h): 17.8 mg/dL | CRE (9 h): 0.7 mg/dL | Ca (9 h): 10.4 mg/dL | Cl (9 h): 102.2 meq/L | DBIL (9 h): 0.0125 mg/dL | GLC (9 h): 323.5 mg/dL | IP (9 h): 9.2 mg/dL | K (9 h): 4.8 meq/L | LDH (9 h): 121.2 IU/L | Na (9 h): 133.5 meq/L | PL (9 h): 128.2 mg/dL | RALB (9 h): 4 g/dL | TBIL (9 h): 0.4 mg/dL | TC (9 h): 76.5 mg/dL | TG (9 h): 14.2 mg/dL | TP (9 h): 5.3 g/dL | gamma-GTP (9 h): 1.8 IU/L | TERMINAL_BW (24 h): 182.2 g | APTT (24 h): 18.9 s | Bas (24 h): 0% | Eos (24 h): 1% | Fbg (24 h): 187 mg/dL | Hb (24 h): 13.7 g/dL | Ht (24 h): 40.7% | Lym (24 h): 61.2% | MCHC (24 h): 33.7% | MCV (24 h): 63.7 fL | Mono (24 h): 9.8% | Neu (24 h): 28.2% | PT (24 h): 12.7 s | Plat (24 h): 126.6 x10_4/uL | RBC (24 h): 639.4 x10_4/ul | Ret (24 h): 9.5% | WBC (24 h): 117.8 x10_2/uL | KIDNEY_L (24 h): 0.9 g | KIDNEY_R (24 h): 0.9 g | KIDNEY_TOTAL (24 h): 1.9 g | LIVER (24 h): 8.1 g | ALP (24 h): 783.2 IU/L | ALT (24 h): 27.2 IU/L | AST (24 h): 64.8 IU/L | BUN (24 h): 22.8 mg/dL | CRE (24 h): 0.8 mg/dL | Ca (24 h): 9.9 mg/dL | Cl (24 h): 108 meq/L | DBIL (24 h): 0.032 mg/dL | GLC (24 h): 209 mg/dL | IP (24 h): 7.3 mg/dL | K (24 h): 4.6 meq/L | LDH (24 h): 99.6 IU/L | Na (24 h): 139.6 meq/L | PL (24 h): 110.4 mg/dL | RALB (24 h): 3.9 g/dL | TBIL (24 h): 0.4 mg/dL | TC (24 h): 55.4 mg/dL | TG (24 h): 41.2 mg/dL | TP (24 h): 5.2 g/dL | gamma-GTP (24 h): 1.8 IU/L
